This is an account of results in patent US8338422B2, “Indolin-2-ones and aza-indolin-2-ones” (Janssen Pharmaceutica NV, priority 2007, dated 2012).

Several values for one entry are separate records, joined by “and”; a condition that tells them apart may be missing. Equal values may be shown once.

The target in one experiment is PLK4 (h) (Homo sapiens, UniProt O00444). The experiment can be described thus: PLK-4 human kinase assay (SPA). Format: biochemical. Particulars: read-out: PLK4 pIC50 (converted). In a few lines:
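Radiometric readout: 33P-labelled peptide captured on streptavidin SPA beads after EDTA stop, imaged by Leadseeker. Reaction ran 60 min at room temperature in Hepes pH 8.0 buffer. It contained 1 μM ATP with 2 nM [γ-33P]ATP, 10 μM biotinylated peptide and PLK4 (h) at 19 μg/ml.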

A further experiment has as its target CDK1/CyclinB (h) (Homo sapiens, UniProt P06493). As to the kind of experiment: CDK1/CyclinB human kinase assay (FRET). Format: biochemical. The conditions noted are these: read-out: CDK1 pIC50 (converted). In short, it runs like this: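 Kinase activity was read as the 460/538 nm emission ratio after protease cleavage of unphosphorylated peptide (60 min development). The reaction ran 60 min at room temperature with 10 μM ATP, 2 μM Ser/Thr peptide 12 and 0.2 μg/ml enzyme in Hepes pH 7.5 buffer with MgCl2, EGTA, Brij-35.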

The test system of another experiment is A2780. As to the kind of experiment: Cellular proliferation assay (Alamar blue), A2780. Format: cell-based. The conditions noted are these: Homo sapiens, A2780, 72 h, A2780 cells, 72 hours with compound, 10% FCS, read-out: pIC50 A2780 (converted). In a few lines:
(§1)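 Proliferation was assessed over 72 h of compound treatment, following 24 h of seeding without compound, under 10% FCS, 37° C. and 5% CO2. Fluorescent resazurin product was measured and compared with control cells.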

For a further experiment, the system named is A549. As to the kind of experiment: Cellular proliferation assay (Alamar blue), A549. Format: cell-based. Particulars: Homo sapiens, A549 cells, 72 hours with compound, 10% FCS, read-out: pIC50 A549 (converted). In short, it runs like this:
as §1

For the next experiment, the system named is A431. As to the kind of experiment: Cellular proliferation assay (Alamar blue), A431. It counts as cell-based. The conditions noted are these: Homo sapiens, A-431, A431 cells, 72 hours with compound, 10% FCS, read-out: pIC50 A431 (converted). The procedure: […] functional properties of these compounds was tested in cellular proliferation assays on a panel of different cell lines in the presence of 10% FCS serum (37° C. and 5% (v/v) CO2). In a first step these cells were seeded and incubated for 24 hours in the absence of compound. In the second step the cells were incubated for 72 hours with the compounds to be tested for 72 hours. The viable cell number was finally assessed in a standard Alamar blue cell viability assay.
The viable cell number was assessed by incubation for either 4 h (HCT-116, H1299, H460) 6 h (SKOV3, HT29, U87-MG, Colo205) or 24 h (A2780, PC3, MDA-MB-231, A549, MCF-7) with Alamar blue (Resazurin 9 μg/ml, K-Ferrocyanide 90 μM K-Ferricyanide 90 μM) and the converted fluorescent product was quantified on a fluorescent plate readed (544 nm/590 nm). Effect of the compounds is calculated as of on control cells.

A further experiment concerns U87MG. As to the kind of experiment: Cellular proliferation assay (Alamar blue), U87MG. It counts as cell-based. Particulars: Homo sapiens, U-87 MG, 72 h, U87MG cells, 72 hours with compound, 10% FCS, read-out: pIC50 U87MG (converted). In a few lines:
as §1

CDK1/CyclinB (h), sequence (P06493 whole entry): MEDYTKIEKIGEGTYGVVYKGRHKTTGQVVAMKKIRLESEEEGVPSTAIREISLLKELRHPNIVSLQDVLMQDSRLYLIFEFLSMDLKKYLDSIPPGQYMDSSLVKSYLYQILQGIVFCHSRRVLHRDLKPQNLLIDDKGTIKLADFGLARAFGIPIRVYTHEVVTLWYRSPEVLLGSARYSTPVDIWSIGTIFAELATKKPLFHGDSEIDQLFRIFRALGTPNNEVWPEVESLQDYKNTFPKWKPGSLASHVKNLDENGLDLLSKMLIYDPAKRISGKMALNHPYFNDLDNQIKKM
CDK1/CyclinB (h), sequence (P14635 whole entry partner): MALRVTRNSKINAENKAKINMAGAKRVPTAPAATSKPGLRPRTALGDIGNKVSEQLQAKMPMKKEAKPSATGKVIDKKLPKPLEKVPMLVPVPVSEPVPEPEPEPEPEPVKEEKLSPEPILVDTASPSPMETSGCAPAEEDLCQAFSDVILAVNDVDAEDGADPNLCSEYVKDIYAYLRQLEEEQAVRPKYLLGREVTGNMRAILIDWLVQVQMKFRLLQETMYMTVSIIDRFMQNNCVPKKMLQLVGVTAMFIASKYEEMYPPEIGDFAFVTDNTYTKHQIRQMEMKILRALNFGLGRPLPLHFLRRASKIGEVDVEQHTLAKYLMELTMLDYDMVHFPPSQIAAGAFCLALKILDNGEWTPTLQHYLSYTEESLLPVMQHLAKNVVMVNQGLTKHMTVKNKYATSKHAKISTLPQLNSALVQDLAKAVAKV
PLK4 (h), sequence (O00444 whole entry): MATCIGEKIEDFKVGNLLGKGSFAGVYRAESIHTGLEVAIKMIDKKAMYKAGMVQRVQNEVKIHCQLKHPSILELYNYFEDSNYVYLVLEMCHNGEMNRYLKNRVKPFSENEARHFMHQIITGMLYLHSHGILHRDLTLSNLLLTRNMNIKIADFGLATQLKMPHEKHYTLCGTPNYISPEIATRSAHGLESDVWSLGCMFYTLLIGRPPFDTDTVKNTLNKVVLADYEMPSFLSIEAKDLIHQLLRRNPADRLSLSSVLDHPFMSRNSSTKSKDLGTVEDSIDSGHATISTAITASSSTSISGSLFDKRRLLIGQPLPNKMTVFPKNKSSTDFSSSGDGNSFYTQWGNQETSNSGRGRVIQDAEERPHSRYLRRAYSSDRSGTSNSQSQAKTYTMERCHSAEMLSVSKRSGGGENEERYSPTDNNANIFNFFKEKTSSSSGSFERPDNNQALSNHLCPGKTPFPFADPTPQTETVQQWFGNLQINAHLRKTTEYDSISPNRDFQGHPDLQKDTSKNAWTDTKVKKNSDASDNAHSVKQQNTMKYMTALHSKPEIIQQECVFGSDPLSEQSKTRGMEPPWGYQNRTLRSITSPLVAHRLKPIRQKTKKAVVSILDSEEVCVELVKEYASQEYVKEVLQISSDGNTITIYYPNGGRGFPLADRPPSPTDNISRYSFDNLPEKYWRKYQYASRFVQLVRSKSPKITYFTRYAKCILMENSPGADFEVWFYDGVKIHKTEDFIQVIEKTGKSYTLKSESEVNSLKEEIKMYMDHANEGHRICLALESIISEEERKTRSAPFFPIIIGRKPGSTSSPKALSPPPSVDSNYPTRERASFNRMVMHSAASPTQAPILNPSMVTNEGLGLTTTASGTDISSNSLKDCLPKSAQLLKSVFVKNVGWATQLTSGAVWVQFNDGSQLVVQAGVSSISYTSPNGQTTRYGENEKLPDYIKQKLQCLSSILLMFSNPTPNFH

Take `COc1ccc2cc1OCCCC(=O)N(C)CCCNc1ncnc3c1/C(=C/N2)C(=O)N3` [Compound 9]: the IC50 on PLK4 (h) is 0.055 µM and 0.0525 µM; on CDK1/CyclinB (h), 0.132 µM and 0.12 µM; with A2780, 0.282 µM; with A549 it was below 0.302 µM; in the experiment with A431 it was 1.45 µM; with U87MG, 2.24 µM.

In the case of `COc1ccc2cc1OCCCCCC(=O)N1CCN(CC1)c1ncnc3c1/C(=C/N2)C(=O)N3` [Compound 18], the IC50 was 4.79 µM at PLK4 (h), above 10 µM on CDK1/CyclinB (h), above 10 µM with A549 and above 10 µM with A431.

As to `COc1ccc2cc1OCCCC(=O)N(C)CCCN(C)c1ncnc3c1/C(=C/N2)C(=O)N3` [Compound 31], the IC50 at PLK4 (h) is 0.525 µM; on CDK1/CyclinB (h) it was 4.68 µM; in the experiment with A2780 it was 2.88 µM; with A549, 0.537 µM; with A431, above 10 µM; in the experiment on U87MG it was 1.62 µM.
